Measured values published in patent US20250263370A1 (Tay Therapeutics Limited, priority 2022, published 2025).
Where “and” joins values, the source holds several entries; their conditions need not be identical. Equal values may be shown once.

Tested on: collagen-induced arthritis
Assay: Collagen-induced arthritis (CIA) model in rats: body weight, paw volume, clinical scores, clinical observations; as to Average detailed clinical score, left hind limb: key of the grades not given here; as to Average detailed clinical score, right hind limb: key of the grades not given here; as to Detailed Clinical Scores, left forelimb: key of the grades not given here; as to Detailed Clinical Scores, left hind limb: key of the grades not given here; as to Detailed Clinical Scores, right forelimb: key of the grades not given here; as to Detailed Clinical Scores, right hind limb: key of the grades not given here; as to Detailed Clinical Scores, score: key of the grades not given here; as to Mean overall clinical score ± SD: key of the grades not given here; as to Overall clinical score: key of the grades not given here
Details: for Mean animal paw volume ± SD: group mean; for Detailed Clinical Scores, left forelimb / Detailed Clinical Scores, left hind limb / Detailed Clinical Scores, right forelimb / Detailed Clinical Scores, right hind limb / Detailed Clinical Scores, score: individual animals ID 1-8; for Overall clinical score: individual animals #1-8
[1] = CIA rats, daily P.O. (group 4), day 21
[2] = CIA rats, daily P.O. for 21 days

In the case of `CNC(=O)c1cc(C(=O)NC2CC2)cn(Cc2ccccc2)c1=O` [GSK620], the “Average animal paw volume percent change” value (CIA rats, Day 0, left hind paw (L)) is reported as 0.00%, the “Animal paw volume Day 0 L” value (CIA rats, Day 0, left paw, individual animals) is reported as 1.27 mL (2×) and 1.32 mL (2×) and 1.37 mL (2×) and 1.34 mL and 1.35 mL and the “Average animal paw volume percent change” value (CIA rats, Day 0, right hind paw (R)) is reported as 0.00%. For the same molecule, the “Animal paw volume Day 0 R” value (CIA rats, Day 0, right paw, individual animals) was 1.27 mL and 1.31 mL and 1.28 mL and 1.37 mL (2×) and 1.33 mL (2×) and 1.34 mL, the “Average animal paw volume percent change” value (CIA rats, Day 6, left hind paw (L)) was 1.04% and the “Animal paw volume Day 6 L” value (CIA rats, Day 6, left paw, individual animals) was 1.27 mL and 1.34 mL (2×) and 1.37 mL and 1.36 mL and 1.38 mL and 1.32 mL and 1.35 mL. For the same molecule, the “Average animal paw volume percent change” value (CIA rats, Day 6, right hind paw (R)) was 1.50%, the “Animal paw volume Day 6 R” value (CIA rats, Day 6, right paw, individual animals) was 1.27 mL and 1.35 mL and 1.38 mL and 1.37 mL and 1.39 mL and 1.33 mL (2×) and 1.34 mL and the “Average animal paw volume percent change” value (CIA rats, Day 12, left hind paw (L)) was 3.13%. For the same molecule, the “Animal paw volume Day 12 L” value (CIA rats, Day 12, left paw, individual animals) was 1.33 mL (2×) and 1.41 mL and 1.37 mL and 1.42 mL and 1.36 mL and 1.35 mL and 1.38 mL, the “Average animal paw volume percent change” value (CIA rats, Day 12, right hind paw (R)) was 3.69% and the “Animal paw volume Day 12 R” value (CIA rats, Day 12, right paw, individual animals) was 1.31 mL and 1.35 mL and 1.42 mL and 1.39 mL (2×) and 1.38 mL (2×) and 1.37 mL. For the same molecule, the “Average animal paw volume percent change” value (CIA rats, Day 13, left hind paw (L)) was 4.09%, the “Animal paw volume Day 13 L” value (CIA rats, Day 13, left paw, individual animals) was 1.34 mL (2×) and 1.43 mL (2×) and 1.36 mL and 1.37 mL and 1.38 mL and 1.40 mL and the “Average animal paw volume percent change” value (CIA rats, Day 13, right hind paw (R)) was 6.88%. The “Animal paw volume Day 13 R” value (CIA rats, Day 13, right paw, individual animals) was 1.40 mL and 1.35 mL and 1.42 mL (2×) and 1.57 mL and 1.37 mL and 1.41 mL and 1.39 mL, the “Average animal paw volume percent change” value (CIA rats, Day 14, left hind paw (L)) was 17.19% and the “Animal paw volume Day 14 L” value (CIA rats, Day 14, left paw, individual animals) was 1.55 mL and 1.78 mL and 1.44 mL and 1.36 mL and 1.43 mL and 1.40 mL and 1.73 mL (2×). For the same molecule, the “Average animal paw volume percent change” value (CIA rats, Day 14, right hind paw (R)) was 26.62%, the “Animal paw volume Day 14 R” value (CIA rats, Day 14, right paw, individual animals) was 1.74 mL and 1.49 mL and 1.44 mL and 2.11 mL and 1.43 mL and 1.38 mL and 1.99 mL and 1.83 mL and the “Average animal paw volume percent change” value (CIA rats, Day 15, left hind paw (L)) was 31.82%. For the same molecule, the “Animal paw volume Day 15 L” value (CIA rats, Day 15, left paw, individual animals) was 2.04 mL and 2.03 mL and 1.39 mL and 1.49 mL and 1.52 mL and 1.60 mL and 2.14 mL and 1.75 mL, the “Average animal paw volume percent change” value (CIA rats, Day 15, right hind paw (R)) was 40.45% and the “Animal paw volume Day 15 R” value (CIA rats, Day 15, right paw, individual animals) was 2.05 mL and 2.08 mL and 1.38 mL and 2.42 mL and 1.47 mL and 1.56 mL and 2.13 mL and 1.79 mL. For the same molecule, the “Average animal paw volume percent change” value (CIA rats, Day 18, left hind paw (L)) was 87.52%, the “Animal paw volume Day 18 L” value (CIA rats, Day 18, left paw, individual animals) was 2.72 mL and 2.54 mL and 2.39 mL and 2.87 mL and 2.29 mL and 2.05 mL and 2.66 mL and 2.34 mL and the “Average animal paw volume percent change” value (CIA rats, Day 18, right hind paw (R)) was 78.42%. For the same molecule, the “Animal paw volume Day 18 R” value (CIA rats, Day 18, right paw, individual animals) was 2.62 mL and 2.45 mL and 2.41 mL and 3.15 mL and 1.46 mL and 2.04 mL and 2.38 mL and 2.34 mL, the “Average animal paw volume percent change” value (CIA rats, Day 19, left hind paw (L)) was 92.23% and the “Animal paw volume Day 19 L” value (CIA rats, Day 19, left paw, individual animals) was 2.71 mL and 2.54 mL and 2.32 mL (2×) and 3.06 mL and 2.61 mL and 2.19 mL and 2.63 mL. The “Average animal paw volume percent change” value (CIA rats, Day 19, right hind paw (R)) was 78.62%, the “Animal paw volume Day 19 R” value (CIA rats, Day 19, right paw, individual animals) was 2.59 mL and 2.46 mL and 2.33 mL (2×) and 3.15 mL and 1.46 mL and 2.20 mL and 2.36 mL and the “Average animal paw volume percent change” value (CIA rats, Day 21, left hind paw (L)) was 91.34%. The “Animal paw volume Day 21 L” value (CIA rats, Day 21, left paw, individual animals) was 2.71 mL and 2.51 mL and 2.34 mL and 3.04 mL and 2.62 mL and 2.21 mL and 2.54 mL and 2.32 mL, the “Average animal paw volume percent change” value (CIA rats, Day 21, right hind paw (R)) was 78.28% and the “Animal paw volume Day 21 R” value (CIA rats, Day 21, right paw, individual animals) was 2.63 mL and 2.44 mL and 2.21 mL and 3.08 mL and 1.61 mL and 2.18 mL and 2.37 mL and 2.33 mL. The “animals with a clinical score of at least 2 in one or more hind limbs” value (CIA rats, daily P.O. (group 4), day 14) was 5/8, the “animals with clinical scores of 3 or greater in one or more hind limbs” value (CIA rats, daily P.O. (group 4), day 18) was “all animals” and the “animals with a clinical score of 4 in each hind limb” value [1] was 3/8. The “animals with a score of 4 in at least one hind limb” value [1] was 5/8, the “day on which clinical scores started to increase” value [2] was 14 days and the “effect on hind paw volume” value [2] was “less effective at preventing an increase in paw volume over the course of the study”. The “average overall clinical score at plateau” value (CIA rats, daily P.O. for 21 days, around day 18) was 8, the “animals showing signs of disease” value (CIA rats, daily P.O., day 12) was “No animals” and the animals exhibiting disease (CIA rats, daily P.O., day 13) was 1/8. For the same molecule, the animals exhibiting disease (CIA rats, daily P.O., day 14) was 5/8, the animals exhibiting disease (CIA rats, daily P.O., day 15) was 7/8 and the animals exhibiting disease (CIA rats, daily P.O., day 18) was “all animals”. For the same molecule, the “Mean animal paw volume ± SD” value (Day 0, L paw) was 1.32 mL, the “Animal paw volume percent change” value (Day 0, L paw, individual animals) was 0.00% and the “Mean animal paw volume ± SD” value (Day 0, R paw) was 1.32 mL. The “Animal paw volume percent change” value (Day 0, R paw, individual animals) was 0.00%, the “Average detailed clinical score, left forelimb” value (Day 0, CIA rats) was 0.00 and the “Average detailed clinical score, left hind limb” value (Day 0, CIA rats) was 0.00. For the same molecule, the “Average detailed clinical score, right forelimb” value (Day 0, CIA rats) was 0.00, the “Average detailed clinical score, right hind limb” value (Day 0, CIA rats) was 0.00 and the “Average detailed clinical score, score” value (Day 0, CIA rats) was 0.00. For the same molecule, the “Mean overall clinical score ± SD” value (Day 0, CIA rats) was 0 ± 0, the “Detailed Clinical Scores, left forelimb” value (Day 0, CIA rats) was 0 and the “Detailed Clinical Scores, left hind limb” value (Day 0, CIA rats) was 0. For the same molecule, the “Detailed Clinical Scores, right forelimb” value (Day 0, CIA rats) was 0, the “Detailed Clinical Scores, right hind limb” value (Day 0, CIA rats) was 0 and the “Detailed Clinical Scores, score” value (Day 0, CIA rats) was 0. For the same molecule, the Overall clinical score (Day 0, CIA rats) was 0, the “Mean animal paw volume ± SD” value (Day 6, L paw) was 1.34 mL and the “Animal paw volume percent change” value (Day 6, L paw, individual animals) was −0.39% and 1.52% and 7.91% and −0.73% and 0.36% and 0.00% (2×) and −0.37%. For the same molecule, the “Mean animal paw volume ± SD” value (Day 6, R paw) was 1.34 mL, the “Animal paw volume percent change” value (Day 6, R paw, individual animals) was −0.39% and 3.07% and 7.84% and 0.00% (4×) and 1.47% and the “Average detailed clinical score, left forelimb” value (Day 6, CIA rats) was 0.00. The “Average detailed clinical score, left hind limb” value (Day 6, CIA rats) was 0.00, the “Average detailed clinical score, right forelimb” value (Day 6, CIA rats) was 0.00 and the “Average detailed clinical score, right hind limb” value (Day 6, CIA rats) was 0.00. For the same molecule, the “Average detailed clinical score, score” value (Day 6, CIA rats) was 0.00, the “Mean overall clinical score ± SD” value (Day 6, CIA rats) was 0 ± 0 and the “Detailed Clinical Scores, left forelimb” value (Day 6, CIA rats) was 0. The “Detailed Clinical Scores, left hind limb” value (Day 6, CIA rats) was 0, the “Detailed Clinical Scores, right forelimb” value (Day 6, CIA rats) was 0 and the “Detailed Clinical Scores, right hind limb” value (Day 6, CIA rats) was 0. The “Detailed Clinical Scores, score” value (Day 6, CIA rats) was 0, the Overall clinical score (Day 6, CIA rats) was 0 and the “Mean animal paw volume ± SD” value (Day 12, L paw) was 1.36 mL. For the same molecule, the “Animal paw volume percent change” value (Day 12, L paw, individual animals) was 4.33% and 0.76% and 11.07% and 0.00% and 3.28% and 1.50% and 2.28% and 1.85%, the “Mean animal paw volume ± SD” value (Day 12, R paw) was 1.37 mL and the “Animal paw volume percent change” value (Day 12, R paw, individual animals) was 2.76% and 3.07% and 10.98% and 1.47% (2×) and 3.77% (2×) and 2.25%. For the same molecule, the “Average detailed clinical score, left forelimb” value (Day 12, CIA rats) was 0.00, the “Average detailed clinical score, left hind limb” value (Day 12, CIA rats) was 0.00 and the “Average detailed clinical score, right forelimb” value (Day 12, CIA rats) was 0.00. The “Average detailed clinical score, right hind limb” value (Day 12, CIA rats) was 0.00, the “Average detailed clinical score, score” value (Day 12, CIA rats) was 0.00 and the “Mean overall clinical score ± SD” value (Day 12, CIA rats) was 0 ± 0. The “Detailed Clinical Scores, left forelimb” value (Day 12, CIA rats) was 0, the “Detailed Clinical Scores, left hind limb” value (Day 12, CIA rats) was 0 and the “Detailed Clinical Scores, right forelimb” value (Day 12, CIA rats) was 0. The “Detailed Clinical Scores, right hind limb” value (Day 12, CIA rats) was 0, the “Detailed Clinical Scores, score” value (Day 12, CIA rats) was 0 and the Overall clinical score (Day 12, CIA rats) was 0.
